From patent US20170360781A1, “PHARMACEUTICAL COMPOSITION COMPRISING BICYCLIC NITROGEN-CONTAINING AROMATIC HETEROCYCLIC AMIDE COMPOUND AS ACTIVE INGREDIENT” (Astellas Pharma Inc., priority 2014, published 2017)

Legend:
[1] = system: Human AML-derived KG-1 cells; assay: Anti-tumor test 1 on tumor-bearing mice transplanted with human AML-derived KG-1 cell; assay type: in vivo; conditions: KG-1, Balb/c nude mice, final measuring day
Method: 4 week old male Balb/c nude mice (CHARLES RIVER LABORATORIES JAPAN, INC.) were injected and implanted, under the skin on the back, with 3×10^6 KG-1 cells, suspended to a mixed solution of PBS and Matrigel (registered trademark) in 1:1. After 16 days of implantation, administering of the test compounds was started. The test was performed on each of the 5 mice in the solvent group (6% cyclodextrin aqueous solution) and the test compound administered group (Test Compound Al was mixed to the solvent group by a dosage of 2, 4, or 8 mg/kg). The administration was performed once a day for 14 days by oral administration, and the body weight and the tumor diameter were measured twice a week. For calculation of the tumor volume, the formula below was used.
(§1) [Tumor volume(mm^3)]=[major axis of tumor(mm)]×[minor axis of tumor(mm)]^2×0.5
(§2) The inhibition rate of tumor growth and the rate of tumor regression were calculated from the average value of the tumor volume according to the formula below.
(§3) Inhibition rate of tumor growth(%)=(1−average of tumor volume growth in each group/average of tumor volume growth in solvent group)×100
(§4) Rate of tumor regression(%)=(1−average tumor volume in each group on measuring day/average tumor volume in each group when dividing groups)×100

[2] = system: Human AML-derived MV-4-11 cells; assay: Anti-tumor test 1 on tumor-bearing mice transplanted with human AML-derived MV-4-11 cell; assay type: in vivo; conditions: MV-4-11, NOD/SCID mice, 8 mg/kg oral once a day for 19 days, final measuring day
Method: 4 to 5 week old male NOD/SCID nude mice (CHARLES RIVER LABORATORIES JAPAN, INC.) were injected and implanted, under the skin on the back, with 5×10^6 MV-4-11 cells suspended to a mixed solution of PBS and Matrigel (registered trademark) in 1:1. After 7 days of implantation, administering of the test compounds was started. […] The administration was performed once a day for 19 days by oral administration, and the body weight and the tumor diameter were measured twice a week. For calculation of the tumor volume, the formula below was used.
as §1
(§5) The inhibition rate of tumor growth was calculated from the average value of the tumor volume according to the formula below.
as §3

[3] = system: SU-DHL-4 cells derived from DLBCL; assay: Anti-tumor test 2 on mice tumor-bearing DLBCL-derived SU-DHL-4 cells; assay type: in vivo; conditions: SU-DHL-4, Balb/c nude mice, final measuring day
Method: (§6) 4 to 5 week old male Balb/c nude mice (CHARLES RIVER LABORATORIES JAPAN, INC.) were injected and implanted, under the skin on the back, with 3×10^6 DB cells or SU-DHL-4 cells both derived from DLBCL suspended to a mixed solution of PBS and Matrigel (registered trademark) in 1:1. Dividing into groups was performed when tumor volume reached 100 to 250 mm^3, and administering of the test compounds was started. The test was performed on each of the 5 mice in the solvent group and the compound administered group. By oral administration, 6% cyclodextrin aqueous solution for the solvent group, and 6% cyclodextrin aqueous solution in which the test compound was mixed by the dosage shown in Table 10 for the compound administered group were administered. The administration was performed once a day for 21 days by oral administration, and the body weight and the tumor diameter were measured twice a week. For calculation of the tumor volume, the formula below was used.
(§7) [Tumor volume(mm^3)]=[major axis of tumor(mm)]×[minor axis of tumor (mm)]^2×0.5
as §2, §3, §4

[4] = system: PIK3CA mutation-positive and BRAF mutation-positive RKO cells derived from human colorectal cancer; assay: Anti-tumor test 1 on mice tumor-bearing human colorectal cancer-derived RKO cells; assay type: in vivo; conditions: Balb/c nude mice, 8 mg/kg oral once a day for 10 days, final measuring day
Method: (§8) 5 to 6 week old male Balb/c nude mice (CHARLES RIVER LABORATORIES JAPAN, INC.) were injected and implanted, under the skin on the back, with 1.5×10^6 PIK3CA mutation-positive and BRAF mutation-positive RKO cells, or 3×10^6 PIK3CA mutation-positive Colo201 cells, both derived from human colorectal cancer suspended to a PBS solution or a mixed solution of PBS and Matrigel (registered trademark) in 1:1. Dividing into groups was performed when the tumor volume reached 100 to 300 mm^3, and administering of the test compounds was started. The test was performed on each of the 5 mice in a solvent group and a compound administered group. By oral administration, 6% cyclodextrin aqueous solution for the solvent group, and 6% cyclodextrin aqueous solution in which the test compound was mixed by 8 mg/kg for the compound administered group were administered. The administration was performed once a day for 10 days (RKO) or 14 days (Colo201), and the body weight and the tumor diameter were measured twice a week. For calculation of the tumor volume, the formula below was used.
as §1
(§9) The inhibition rate of tumor growth was calculated from the average value of the tumor volume according to the formula below. […]

[5] = system: PIK3CA mutation-positive Colo201 cells derived from human colorectal cancer; assay: Anti-tumor test 2 on mice tumor-bearing human colorectal cancer-derived Colo201 cells; assay type: in vivo; conditions: Colo201, Balb/c nude mice, final measuring day
Method: (§10) 4 to 5 week old male Balb/c nude mice (CHARLES RIVER LABORATORIES JAPAN, INC.) were injected and implanted, under the skin on the back, with 3×10^6 PIK3CA mutation-positive and BRAF mutation-positive RKO cells, or 3×10^6 PIK3CA mutation-positive Colo201 cells, both derived from human colorectal cancer suspended to a mixed solution of PBS and Matrigel (registered trademark) in 1:1. Dividing into groups was performed when the tumor volume reached 100 to 250 mm^3, and administering of the test compounds was started. The test was performed on each of the 5 mice in the solvent group and the compound administered group. By oral administration, 6% cyclodextrin aqueous solution for the solvent group, and 6% cyclodextrin aqueous solution in which the test compound was mixed by the dosage shown in Table 4 for the compound administered group were administered. The administration was performed once a day for 11 days (RKO) or 21 days (Colo201), and the body weight and the tumor diameter were measured twice a week. For calculation of the tumor volume, the formula below was used.
as §1, §5
(§11) Inhibition rate of tumor growth(%)=([…]average of tumor volume growth in each group/average of tumor volume growth in solvent group)×100

[6] = system: WSU-DLCL-2 cells derived from DLBCL; assay: Anti-tumor test 1 on mice tumor-bearing DLBCL-derived WSU-DLCL-2 cells; assay type: in vivo; conditions: WSU-DLCL-2, Balb/c nude mice, 8 mg/kg oral once a day for 17 days, final measuring day
Method: (§12) 4 to 5 week old male Balb/c nude mice (CHARLES RIVER LABORATORIES JAPAN, INC.) were injected and implanted, under the skin on the back, with 3×10^6 DB cells or WSU-DLCL-2 cells both derived from DLBCL suspended to a mixed solution of PBS and Matrigel (registered trademark) in 1:1. Dividing into groups was performed when the average tumor volume reached 400 to 500 mm^3, and administering of the test compounds was started. […] The administration was performed once a day for 16 days (DB) or 17 days (WSU-DLCL-2) by oral administration, and the body weight and the tumor diameter were measured twice a week. For calculation of the tumor volume, the formula below was used.
as §7
(§13) The rate of tumor regression was calculated from the average value of the tumor volume according to the formula below.
as §4

[7] = system: Human AML-derived KG-1 cells; assay: Anti-tumor test 2 on tumor-bearing mice transplanted with human AML-derived KG-1 cell; assay type: in vivo; conditions: KG-1, Balb/c nude mice, final measuring day
Method: as §6, with “5 weeks” for “5 week”, “3×10^6 KG-1” for “3×10^6 DB”, “cells” for “cells or SU-DHL-4 cells both derived from DLBCL”, “to 200” for “to 250”, “Table 6” for “Table 10”, “21 days,” for “21 days by oral administration,”
as §1, §2, §3, §4

[8] = system: DB cells derived from DLBCL; assay: Anti-tumor test 1 on mice tumor-bearing DLBCL-derived DB cells; assay type: in vivo; conditions: Balb/c nude mice, 8 mg/kg oral once a day for 16 days, final measuring day
Method: as §12, §7, §13, §4

[9] = system: PIK3CA mutation-positive and BRAF mutation-positive RKO cells derived from human colorectal cancer; assay: Anti-tumor test 2 on mice tumor-bearing human colorectal cancer-derived RKO cells; assay type: in vivo; conditions: Balb/c nude mice, final measuring day
Method: as §10, §1, §5, §11

[10] = system: DB cells derived from DLBCL; assay: Anti-tumor test 2 on mice tumor-bearing DLBCL-derived DB cells; assay type: in vivo; conditions: Balb/c nude mice, final measuring day
Method: as §6, §7, §2, §3, §4

[11] = system: PIK3CA mutation-positive Colo201 cells derived from human colorectal cancer; assay: Anti-tumor test 1 on mice tumor-bearing human colorectal cancer-derived Colo201 cells; assay type: in vivo; conditions: Colo201, Balb/c nude mice, 8 mg/kg oral once a day for 14 days, final measuring day
Method: as §8, §1, §9

[12] = system: Human AML-derived MV-4-11 cells; assay: Anti-tumor test 2 on tumor-bearing mice transplanted with human AML-derived MV-4-11 cell; assay type: in vivo; conditions: MV-4-11, NOD/SCID mice, 14 days after starting the administration
Method: 4 to 5 week old male NOD/SCID nude mice (CHARLES RIVER LABORATORIES JAPAN, INC.) were injected and implanted, under the skin on the back, with 5×10^6 MV-4-11 cells suspended to a mixed solution of PBS and Matrigel (registered trademark) in 1:1. Administering of the test compounds was started when tumor volume reached 100 to 250 mm^3. The test was performed on each of the 5 mice in the solvent group and the compound administered group. By oral administration, 6% cyclodextrin aqueous solution for the solvent group, and 6% cyclodextrin aqueous solution in which the test compound was mixed by the dosage shown in Table 8 for the compound administered group were administered. The administration was performed once a day by oral administration, and the body weight and the tumor diameter were measured twice a week. For calculation of the tumor volume, the formula below was used.
as §1, §2, §3, §4
The anti-tumor effect of Test Compounds A1, B1, C1, and D1 on the final measuring day (14 days after starting the administration) is shown in Table 8.

[13] = molecular target: Human Mitochondrial Complex I (Homo sapiens, UniProt O75251+O75306+P03886); assay: Evaluation on effect of inhibiting human mitochondrial Complex I (mitochondria from MDA-MB-453 tumor); assay type: biochemical; conditions: mitochondria extracted from MDA-MB-453 tumor; concentration in terms of freebase
Method: A solution of 9 times the tumor weight for extraction of mitochondria (0.275 M Sucrose, 2.2 mM EDTA, 11 mM Tris/HCl, pH 7.5, Complete-EDTA-free (Roche Diagnostics)) was added thereto, and then the tumor was crushed. The centrifugation was performed at 600×g for 10 minutes at 4° C., the supernatant was obtained, and then the centrifugation was performed at 14,000×g for 10 minutes at 4° C., and therefore pellets were obtained. The pellets were suspended in 10 mM Tris/HCl pH 7.5 of 5 times the weight of the extracted tumor, and therefore a suspension of human mitochondria was obtained.
Next, 25 or 50 μl of the suspension of human mitochondria was added per 1 ml of a liquid for measuring Complex I activity (25 mM potassium phosphate, pH 7.6, 0.35% Bovine Serum Albumin (BSA), 60 μM 2,6-dichlorophenol-indophenol, 70 μM decylubiquinone, 1 μM antimycin). After the solution was collected and added to a 96 or 384 well plate, a test compound was added to an arbitrary range from the final concentration of 10,000 nM to the final concentration of 0.3 nM. […] Furthermore, NADH was added to each well to the final concentration of 0.2 or 0.5 mM, and the change in absorbance at a wavelength of 600 nm was measured by using the SpectraMax (Molecular Devices, LLC.) set to 37° C. in advance. […]

[14] = 8 mg/kg oral once a day for 21 days
[15] = 8 mg/kg oral once a day for 11 days
[16] = 1 mg/kg oral once a day for 21 days
[17] = 1 mg/kg oral once a day for 11 days

COc1ccc(CN2CCC(c3ccc4[nH]c(C(=O)N5CCN(Cc6ccc(C(F)(F)F)cc6)CC5)nc4c3)CC2)cn1 [Compound A1, (5-{1-[(6-methoxypyridin-3-yl)methyl]piperidin-4-yl}-1H-benzimidazol-2-yl){4-[4-(trifluoromethyl)benzyl]piperazin-1-yl}methanone]
Inhibition rate of tumor growth ([1]; 2 mg/kg oral once a day for 14 days): 54% inhibition
Inhibition rate of tumor growth ([1]; 4 mg/kg oral once a day for 14 days): 70% inhibition
Rate of tumor regression ([1]; 8 mg/kg oral once a day for 14 days): 8% regression
Inhibition rate of tumor growth [2]: 96%
Inhibition rate SU-DHL-4 [3, 14]: 64%
Inhibition rate of tumor growth [4]: 67%
Inhibition rate Colo201 [5, 14]: 53%
Regression rate [6]: 72%
Inhibition rate of tumor growth [7, 14]: 99% inhibition
Regression rate [8]: 67%
Inhibition rate RKO [9, 15]: 48%
Regression rate DB [10, 14]: 66% regression
Inhibition rate of tumor growth [11]: 60%
Rate of tumor regression ([12]; 8 mg/kg oral once a day): 70% regression

COc1cnc(CN2CCC(c3ccc4[nH]c(C(=O)N5CCN(Cc6ccc(C(F)(F)F)cc6)CC5)nc4c3)CC2)cn1 [Compound B1, (5-{1-[(5-methoxypyrazin-2-yl)methyl]piperidin-4-yl}-1H-benzimidazol-2-yl){4-[4-(trifluoromethyl)benzyl]piperazin-1-yl}methanone]
Inhibition rate SU-DHL-4 [3, 14]: 87%
Inhibition rate Colo201 [5, 14]: 52%
Rate of tumor regression [7, 14]: 31% regression
Inhibition rate RKO [9, 15]: 55%
Regression rate DB [10, 14]: 92% regression
Rate of tumor regression ([12]; 8 mg/kg oral once a day): 76% regression

CCOc1cnc(CN2CCC(c3ccc4cc(C(=O)N5CCN(Cc6ccc(C#N)cc6)CC5)n(C)c4c3)CC2)cn1 [Compound C1, 4-({4-[(6-{1-[(5-ethoxypyrazin-2-yl)methyl]piperidin-4-yl}-1-methyl-1H-indol-2-yl)carbonyl]piperazin-1-yl}methyl)benzonitrile]
Inhibition rate SU-DHL-4 [3, 16]: 100%
Inhibition rate Colo201 [5, 16]: 54%
Rate of tumor regression [7, 16]: 29% regression
Inhibition rate RKO [9, 17]: 58%
Regression rate DB [10, 16]: 69% regression
Rate of tumor regression ([12]; 1 mg/kg oral once a day): 77% regression

COc1cnc(CN2CCC(c3ccc4c(c3)cc(C(=O)N3CCN(Cc5ccc(C#N)cc5)CC3)n4C)CC2)cn1 [Compound D1, 4-({4-[(5-{1-[(5-methoxypyrazin-2-yl)methyl]piperidin-4-yl}-1-methyl-1H-indol-2-yl)carbonyl]piperazin-1-yl}methyl)benzonitrile]
Inhibition rate SU-DHL-4 [3, 16]: 40%
IC50 [13]: 120 nM
Inhibition rate Colo201 [5, 16]: 45%
Inhibition rate of tumor growth [7, 16]: 95% inhibition
Inhibition rate RKO [9, 17]: 13%
Inhibition rate DB [10, 16]: 96% inhibition
Inhibition rate of tumor growth ([12]; 1 mg/kg oral once a day): 90% inhibition
